Test results reported in patent EP1039908B1, “MOLECULAR DISPERSION COMPOSITION WITH ENHANCED BIOAVAILABILITY” (SCHERING CORPORATION, priority 1997, dated 1999).

Experiment: Bioavailability assay: oral single dose to monkeys, plasma analysed by HPLC-UV, AUC ratio versus amorphous suspension control
Assay type: in vivo, male cynomolgus monkeys
Conditions: for bioavailability: qualitative statement, solid dosage form development with conventional excipients
Experimental: The formulation to be tested was administered orally to male cynomolgus monkeys in a single dose (PO, single). The number of monkeys for each test is indicated by the letter "N" followed by an equal sign and a number. Thus, "(N=6)" means the formulation was administered to six monkeys. The total amount of the compound of Formula I administered was 100 or 200 mg given as one capsule or tablet containing 100 or 200 mg each. The administered dose (tablet, capsule or control suspension) was slowly washed down with 10 mL of water. Blood samples were taken at 15, 30 minutes, 1 hour, 2 hours, 4 hours. 6 hours, 8 hours, 12 hours, 24 hours, and 48 hours in heparinized syringes. Plasma for analysis was obtained by centrifugation at 4°C. Plasma samples (one per time point) were split and stored at -20°C until assayed as described below.
The monkeys to be tested were fed two biscuits in the morning on the day of drug administration.
Monkeys that were fasted were not given any food overnight before drug administration and were fed normally after the 4-hour time point after drug administration.
Samples of monkey plasma were collected at selected time intervals. The plasma was analyzed by a high pressure liquid chromatograph (HPLC) procedure with ultraviolet detection. AUC (area under the plasma concentration-time curve, […]) values were calculated using standard procedures to determine the relative bioavailability of the compound in the tested formulations. The larger the AUC value, the greater the bioavailability.
A suspension of the compound of Formula I was used as a control. The control was made by suspending sufficient compound of Formula I in methyl cellulose solution to provide a dose of 30 mg/kg of body weight of monkey. The 0.4 % methyl cellulose solution was made by adding 4 grams of methyl cellulose to one liter of distilled water and heating at about 80°C with stirring for about 1 1/2 hours.
The results of the bioavailability assay are given in terms of percent-relative bioavailability (AUC ratio) compared to amorphous suspension of Compound I in 0.4 methyl cellulose solution.

[1] = suspension, PO single dose, fed monkeys
[2] = suspension, PO single dose, feeding state not printed in the sentence (fasted monkeys implied by b156)

SMILES | bioavailability | relative bioavailability, % of the AUC of suspensions containing the amorphous form of compound I [1] [%] | relative bioavailability, % of the C max of suspensions containing the amorphous form of compound I [1] [%] | relative bioavailability, % of the AUC of the suspensions containing the amorphous form of compound I [2] [%] | relative bioavailability, % of the Cmax of the suspensions containing the amorphous form of compound I [2] [%] | bioavailability (listed as compound of Formula I)
NC(=O)N1CCC(CC(=O)N2CCC(C3c4ncc(Br)cc4CCc4cc(Cl)cc(Br)c43)CC2)CC1 (single isomer, unassigned; (+)) [crystalline compound I, (+)-4-[4-(8-chloro-3,10-dibromo-6,11-dihydro-5H-benzo [5,6cyclohepta[1,2-b]pyridin-11-yl)-1-piperidinyl]-2-oxoethyl]-1-piperidinecarboxamide] | very poor | 3.6 | 5.2 | 1.3 | 2.7 | –
NC(=O)N1CCC(CC(=O)N2CCC(C3c4ncc(Br)cc4CCc4cc(Cl)cc(Br)c43)CC2)CC1 (single isomer, unassigned; (+)) [Compound I, (+)-4-[4-(8-chloro-3,10-dibromo-6,11-dihydro-5H-benzo [5,6cyclohepta[1,2-b]pyridin-11-yl)-1-piperidinyl]-2-oxoethyl]-1-piperidinecarboxamide] | – | – | – | – | – | extremely poor
